This is an account of results in the supplement of paper PMC10307832.

Common to all, as to assay: relative viability (nuclei count vs DMSO), 5 days (fraction); higher = more cells survive
Compound in assay [1]: C1CCC(CC1)N(CCNCCC2=C3C(=C(C=C2)O)NC(=O)CO3)C(=O)CCNCCC4=CC(=C(C=C4)Cl)Cl [AZ505] + COc1cc2c(Oc3ccc(NC(=O)C4(C(=O)Nc5ccc(F)cc5)CC4)cc3F)ccnc2cc1OCCCN1CCOCC1 [Foretinib] (partner 0.25 µM)
An outline of the steps:
(§1)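 Relative viability equals treated-well nuclei counts divided by vehicle-well nuclei counts. Counts came from 4× images of lung cancer cell lines grown in 1536-well plates for 5 days after pin-tool dosing on the day after seeding. Dosing used one drug alone or a fixed anchor-drug dose plus five library-drug doses (not always all listed) in √10 steps, and values are medians of duplicate plates.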

Compound in assay [2]: Cn1c(=O)n(-c2ccc(C(C)(C)C#N)cc2)c2c3cc(-c4cnc5ccccc5c4)ccc3ncc21 [Dactolisib] + C[C@]1(O)C[C@@H](c2nc(-c3ccc4ccc(-c5ccccc5)nc4c3)c3c(N)nccn32)C1 [Linsitinib] (partner 1 µM)
An outline of the steps: as §1

Compound in assay [3]: Cn1c(=O)n(-c2ccc(C(C)(C)C#N)cc2)c2c3cc(-c4cnc5ccccc5c4)ccc3ncc21 [Dactolisib] + CS(=O)(=O)N1CCN(Cc2cc3nc(-c4cccc5[nH]ncc45)nc(N4CCOCC4)c3s2)CC1 [Pictilisib] (partner 1 µM)
The method, boiled down: as §1

Compound in assay [4]: Cn1c(=O)n(-c2ccc(C(C)(C)C#N)cc2)c2c3cc(-c4cnc5ccccc5c4)ccc3ncc21 [Dactolisib] + C[C@@H](Oc1cc(-c2cnn(C3CCNCC3)c2)cnc1N)c1c(Cl)ccc(F)c1Cl [Crizotinib] (partner 1 µM)
An outline of the steps: as §1

In the case of UMC-11, the relative viability in assay [1] (first compound 0.08 µM) was determined as 0.975; in assay [1] (first compound 0.253 µM), 1.15; in assay [1] (first compound 0.8 µM), 0.922; in assay [1] (first compound 2.53 µM), 1.09; in assay [1] (first compound 8 µM), 1.11; in assay [2] (first compound 0.002 µM), 1.02. In addition, the relative viability in assay [2] (first compound 0.006325 µM) came out at 0.987; in assay [2] (first compound 0.02 µM), 0.671; in assay [2] (first compound 0.06325 µM), 0.286; in assay [2] (first compound 0.2 µM) it was 0.262; in assay [3] (first compound 0.002 µM), 0.753; in assay [3] (first compound 0.006325 µM), 0.727. Further, the relative viability was determined as 0.606 in assay [3] (first compound 0.02 µM); 0.285 in assay [3] (first compound 0.06325 µM); 0.203 in assay [3] (first compound 0.2 µM); 0.556 in assay [4] (first compound 0.002 µM); 0.585 in assay [4] (first compound 0.006325 µM); 0.403 in assay [4] (first compound 0.02 µM). Moreover, the relative viability in assay [4] (first compound 0.06325 µM) was 0.275; in assay [4] (first compound 0.2 µM) it was 0.155.
